According to PubChem BioAssay AID1963435 (Molecular Pharmacology Branch, DTP, NCI, 2024):
Several values for one entry are separate records, joined by “and”; a condition that tells them apart may be missing. Identical values can stand only once.

Test system: PANC-1 complex spheroid growth, percent test/control
Assay: Anticancer human tumor PANC-1 cell line growth inhibition [Asc];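 note: spheroids exposed to agents for 7 days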;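 for viability, T/C: percent viability relative to DMSO vehicle wells taken as 100%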
Conditions: for viability, T/C: stronger effect = lower value
Summary of the method: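 Stromal components (HUVEC and hMSC) are co-assembled with the cancer cells into multicellular spheroids. Drugs are then added singly or paired, at concentrations falling by half-log increments from a clinically achievable maximum, capped at 10 microM without known Cmax.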

[1] = curve of first compound, second compound 0.0316 µM
[2] = curve of first compound, second compound 0.1 µM
[3] = curve of first compound, second compound 0.316 µM
[4] = curve of first compound, second compound 1 µM
[5] = curve of first compound, second compound 3.16 µM
[6] = curve of first compound, second compound 10 µM
[7] = second compound 0.0316 µM, first compound 0.00316 µM
[8] = second compound 0.0316 µM, first compound 0.01 µM
[9] = second compound 0.0316 µM, first compound 0.0316 µM
[10] = second compound 0.0316 µM, first compound 0.1 µM
[11] = second compound 0.1 µM, first compound 0.00316 µM
[12] = second compound 0.1 µM, first compound 0.01 µM
[13] = second compound 0.1 µM, first compound 0.0316 µM
[14] = second compound 0.1 µM, first compound 0.1 µM
[15] = second compound 0.316 µM, first compound 0.00316 µM
[16] = second compound 0.316 µM, first compound 0.01 µM
[17] = second compound 0.316 µM, first compound 0.0316 µM
[18] = second compound 0.316 µM, first compound 0.1 µM
[19] = second compound 1 µM, first compound 0.00316 µM
[20] = second compound 1 µM, first compound 0.01 µM
[21] = second compound 1 µM, first compound 0.0316 µM
[22] = second compound 1 µM, first compound 0.1 µM
[23] = second compound 3.16 µM, first compound 0.00316 µM
[24] = second compound 3.16 µM, first compound 0.01 µM
[25] = second compound 3.16 µM, first compound 0.0316 µM
[26] = second compound 3.16 µM, first compound 0.1 µM
[27] = second compound 10 µM, first compound 0.00316 µM
[28] = second compound 10 µM, first compound 0.01 µM
[29] = second compound 10 µM, first compound 0.0316 µM
[30] = second compound 10 µM, first compound 0.1 µM

O=C(c1ccc(F)c(F)c1Nc1ccc(I)cc1F)N1CC(O)([C@@H]2CCCCN2)C1 + Cc1c(S(C)(=O)=O)c(-c2cc(F)cc(N3CCN(c4ccc(NS(=O)(=O)c5ccc(NC(CCN6CCC(C(=O)OCCCP(=O)(O)O)CC6)CSc6ccccc6)c(S(=O)(=O)C(F)(F)F)c5)cc4)CC3)c2)c(-c2ccc(Cl)cc2)n1C(C)C
IC50 [1]: > 1000 nM
IC50 [2]: > 1000 nM
IC50 [3]: > 1000 nM
IC50 [4]: > 1000 nM
IC50 [5]: > 1000 nM
IC50 [6]: > 1000 nM
viability, T/C [7]: 82.4%
viability, T/C [8]: 88%
viability, T/C [9]: 85.4%
viability, T/C [10]: 86.8%
viability, T/C (second compound 0.0316 µM, first compound 0.316 µM): 93%
viability, T/C (second compound 0.0316 µM, first compound 1 µM): 89%
viability, T/C [11]: 96.5%
viability, T/C [12]: 109%
viability, T/C [13]: 96%
viability, T/C [14]: 84.6%
viability, T/C (second compound 0.1 µM, first compound 0.316 µM): 91.8%
viability, T/C (second compound 0.1 µM, first compound 1 µM): 91.1%
viability, T/C [15]: 99.8%
viability, T/C [16]: 93.5%
viability, T/C [17]: 86.2%
viability, T/C [18]: 89.6%
viability, T/C (second compound 0.316 µM, first compound 0.316 µM): 83.8%
viability, T/C (second compound 0.316 µM, first compound 1 µM): 84%
viability, T/C [19]: 89.9%
viability, T/C [20]: 87.2%
viability, T/C [21]: 88%
viability, T/C [22]: 87.7%
viability, T/C (second compound 1 µM, first compound 0.316 µM): 94.8%
viability, T/C (second compound 1 µM, first compound 1 µM): 85%
viability, T/C [23]: 104%
viability, T/C [24]: 97.1%
viability, T/C [25]: 89.3%
viability, T/C [26]: 88.6%
viability, T/C (second compound 3.16 µM, first compound 0.316 µM): 83.3%
viability, T/C (second compound 3.16 µM, first compound 1 µM): 78.1%
viability, T/C [27]: 173%
viability, T/C [28]: 175%
viability, T/C [29]: 157%
viability, T/C [30]: 132%
viability, T/C (second compound 10 µM, first compound 0.316 µM): 142%
viability, T/C (second compound 10 µM, first compound 1 µM): 131%

NC1CCC(NC2CC2c2ccccc2)CC1 (stereo not given) + Cc1c(S(C)(=O)=O)c(-c2cc(F)cc(N3CCN(c4ccc(NS(=O)(=O)c5ccc(NC(CCN6CCC(C(=O)OCCCP(=O)(O)O)CC6)CSc6ccccc6)c(S(=O)(=O)C(F)(F)F)c5)cc4)CC3)c2)c(-c2ccc(Cl)cc2)n1C(C)C
IC50 [1]: > 100 nM
IC50 [2]: > 100 nM
IC50 [3]: > 100 nM
IC50 [4]: > 100 nM
IC50 [5]: > 100 nM
IC50 [6]: > 100 nM
viability, T/C (second compound 0.0316 µM, first compound 0.000316 µM): 109%
viability, T/C (second compound 0.0316 µM, first compound 0.001 µM): 101%
viability, T/C [7]: 98.1%
viability, T/C [8]: 91.4%
viability, T/C [9]: 95.1%
viability, T/C [10]: 100%
viability, T/C (second compound 0.1 µM, first compound 0.000316 µM): 109%
viability, T/C (second compound 0.1 µM, first compound 0.001 µM): 98.3%
viability, T/C [11]: 101%
viability, T/C [12]: 107%
viability, T/C [13]: 98%
viability, T/C [14]: 115%
viability, T/C (second compound 0.316 µM, first compound 0.000316 µM): 108%
viability, T/C (second compound 0.316 µM, first compound 0.001 µM): 97.1%
viability, T/C [15]: 97.5%
viability, T/C [16]: 98.5%
viability, T/C [17]: 110%
viability, T/C [18]: 105%
viability, T/C (second compound 1 µM, first compound 0.000316 µM): 104%
viability, T/C (second compound 1 µM, first compound 0.001 µM): 109%
viability, T/C [19]: 121%
viability, T/C [20]: 92%
viability, T/C [21]: 112%
viability, T/C [22]: 107%
viability, T/C (second compound 3.16 µM, first compound 0.000316 µM): 114%
viability, T/C (second compound 3.16 µM, first compound 0.001 µM): 110%
viability, T/C [23]: 102%
viability, T/C [24]: 108%
viability, T/C [25]: 109%
viability, T/C [26]: 110%
viability, T/C (second compound 10 µM, first compound 0.000316 µM): 168%
viability, T/C (second compound 10 µM, first compound 0.001 µM): 206%
viability, T/C [27]: 176%
viability, T/C [28]: 177%
viability, T/C [29]: 174%
viability, T/C [30]: 168%

C#Cc1c(F)ccc2cc(O)cc(-c3ncc4c(N5CC6CCC(C5)N6)nc(OCC56CCCN5CC(F)C6)nc4c3F)c12 (stereo not given)
viability, T/C (compound 0.0316 µM): 105% and 87.8% and 92.5%
viability, T/C (compound 0.1 µM): 80% and 75.7% and 88.9%
viability, T/C (compound 0.316 µM): 93.9% and 85.8% and 83.5%
viability, T/C (compound 1 µM): 79.9% and 80.1% and 84%
viability, T/C (compound 3.16 µM): 86.8% and 83.7% and 86.3%
viability, T/C (compound 10 µM): 85.4% and 84.5% and 92.1%
IC50 (curve of compound): > 10000 nM

Cc1nc(N2CCC3(CC2)COC(C)C3N)c(CO)nc1Sc1ccnc(N)c1Cl (stereo not given)
viability, T/C (compound 0.00949 µM): 101% and 93.1% and 109%
viability, T/C (compound 0.03 µM): 83.2% and 88.3% and 85.1%
viability, T/C (compound 0.0949 µM): 102% and 90.2% and 91%
viability, T/C (compound 0.3 µM): 82.2% and 84.3% and 94.8%
viability, T/C (compound 0.949 µM): 91.4% and 83.7% and 86.9%
viability, T/C (compound 3 µM): 87.5% and 86% and 99.3%
IC50 (curve of compound): > 3000 nM

O=C(c1cc(Cc2n[nH]c(=O)c3ccccc23)ccc1F)N1CCN(C(=O)C2CC2)CC1 + CCN1C(C(=O)NC23CCC(C(=O)O)(CC2)CC3)C(c2cccc(Cl)c2F)C2(C(=O)Nc3cc(Cl)ccc32)C12CCCCC2
IC50 (curve of first compound, second compound 0.00949 µM): > 10000 nM
IC50 (curve of first compound, second compound 0.03 µM): > 10000 nM
IC50 (curve of first compound, second compound 0.0949 µM): > 10000 nM
IC50 (curve of first compound, second compound 0.3 µM): > 10000 nM
IC50 (curve of first compound, second compound 0.949 µM): > 10000 nM
IC50 (curve of first compound, second compound 3 µM): > 10000 nM
viability, T/C (second compound 0.00949 µM, first compound 0.0316 µM): 88.1%
viability, T/C (second compound 0.00949 µM, first compound 0.1 µM): 93.6%
viability, T/C (second compound 0.00949 µM, first compound 0.316 µM): 96.2%
viability, T/C (second compound 0.00949 µM, first compound 1 µM): 93.6%
viability, T/C (second compound 0.00949 µM, first compound 3.16 µM): 114%
viability, T/C (second compound 0.00949 µM, first compound 10 µM): 104%
viability, T/C (second compound 0.03 µM, first compound 0.0316 µM): 103%
viability, T/C (second compound 0.03 µM, first compound 0.1 µM): 98.7%
viability, T/C (second compound 0.03 µM, first compound 0.316 µM): 102%
viability, T/C (second compound 0.03 µM, first compound 1 µM): 99.4%
viability, T/C (second compound 0.03 µM, first compound 3.16 µM): 102%
viability, T/C (second compound 0.03 µM, first compound 10 µM): 97.2%
viability, T/C (second compound 0.0949 µM, first compound 0.0316 µM): 100%
viability, T/C (second compound 0.0949 µM, first compound 0.1 µM): 94.9%
viability, T/C (second compound 0.0949 µM, first compound 0.316 µM): 99.5%
viability, T/C (second compound 0.0949 µM, first compound 1 µM): 104%
viability, T/C (second compound 0.0949 µM, first compound 3.16 µM): 102%
viability, T/C (second compound 0.0949 µM, first compound 10 µM): 93.9%
viability, T/C (second compound 0.3 µM, first compound 0.0316 µM): 104%
viability, T/C (second compound 0.3 µM, first compound 0.1 µM): 97.9%
viability, T/C (second compound 0.3 µM, first compound 0.316 µM): 111%
viability, T/C (second compound 0.3 µM, first compound 1 µM): 103%
viability, T/C (second compound 0.3 µM, first compound 3.16 µM): 105%
viability, T/C (second compound 0.3 µM, first compound 10 µM): 93.2%
viability, T/C (second compound 0.949 µM, first compound 0.0316 µM): 101%
viability, T/C (second compound 0.949 µM, first compound 0.1 µM): 103%
viability, T/C (second compound 0.949 µM, first compound 0.316 µM): 110%
viability, T/C (second compound 0.949 µM, first compound 1 µM): 102%
viability, T/C (second compound 0.949 µM, first compound 3.16 µM): 111%
viability, T/C (second compound 0.949 µM, first compound 10 µM): 101%
viability, T/C (second compound 3 µM, first compound 0.0316 µM): 116%
viability, T/C (second compound 3 µM, first compound 0.1 µM): 117%
viability, T/C (second compound 3 µM, first compound 0.316 µM): 107%
viability, T/C (second compound 3 µM, first compound 1 µM): 126%
viability, T/C (second compound 3 µM, first compound 3.16 µM): 121%
viability, T/C (second compound 3 µM, first compound 10 µM): 114%
